Laboratory results taken from patent publication US11958814B1, “3-(4-nitrophenyl)-5-((2-isopropyl-5-methylphenoxy)methyl)-1,2,4-oxadiazole as an anti-cancer and antimicrobial compound” (KING FAISAL UNIVERSITY, priority 2023, dated 2024).

Assays:
[1] = system: human prostate cancer cells (PC3); assay: Cytotoxicity by SRB assay; type: cell-based; settings: 0.01 μM to 100 μM for 72 h
Source text: (§1) The anticancer activity of the described synthesized compounds against highly aggressive androgen-independent metastatic human prostate cancer cells (PC3) and osteosarcoma (MG-63) cells. The human prostate cancer cells (PC3) and human osteosarcoma cells (MG-63) were obtained from Nawah Scientific Inc. (Mokatam, Cairo, Egypt) and cultured in DMEM (Dulbecco's modified eagle's medium), Gibco, USA, supplemented with fetal bovine serum (FBS) at a concentration of 10% and 100 U/mL of penicillin and streptomycin (PS). The Cells were incubated at 37° C. in a humidified environment that contained 5% CO2.
(§2) Cells were seeded in 96-well plates as aliquots of 100 μL cell suspension and incubated in a complete media for 24 h. afterward, cells were treated with 3-(4-nitrophenyl)-5-((2-isopropyl-5-methylphenoxy)methyl)-1,2,4-oxadiazole at diverse concentrations ranging from 0.01 μM to 100 μM for 72 h. Then, cells were fixed at 4° C. for one hour with 150 μL of 10% trichloroacetic acid (TCA). […] Then, 150 μL of Tris pH 10.5 (10 mM) was added, and the absorbance was measured at 540 nm using a BMG LABTECH®-FLUOstar Omega microplate reader (Ortenberg, Germany). Half maximal inhibitory concentrations (IC50) values were calculated for each experiment using GraphPad Prism 6 software. […]
(§3) The inhibition was calculated using the following equation: Inhibition %=100−Average Viability

[2] = system: human osteosarcoma cells (MG-63); assay: Cytotoxicity by SRB assay; type: cell-based; settings: MG-63 cells, 0.01 μM to 100 μM for 72 h
Source text: as §1, §2, §3

Pseudomonas aeruginosa = assay: Agar plate disc-diffusion, inhibition zone; type: cell-based; settings: 37° C., 48 h
Protocol: (§4) The agar plate disc-diffusion method was applied. Sterilized filter papers (6 mm in diameter) were wetted with 10 μL of a solution of 3-(4-nitrophenyl)-5-((2-isopropyl-5-methylphenoxy)methyl)-1,2,4-oxadiazole (3) to be tested, containing 10 mg/mL in DMSO, and the discs were allowed to air dry. The discs were then placed onto the surface of agar plates (nutrient agar for bacteria and Sabouraud's dextrose agar for fungi) seeded with the test organism. Each plate contained 15 mL of the agar medium, previously seeded with 0.2 mL of the broth culture of each organism pregrown for 18 hours. The plates were incubated at 37° C. for 48 h, and 72 h for fungi. The inhibition zones were measured in mm. Discs impregnated with DMSO were used as a control, and its inhibition zone was subtracted from the tested compound actual inhibition zone.

Staphylococcus aureus = assay: Agar plate disc-diffusion, inhibition zone; type: cell-based; settings: 37° C., 48 h
Protocol: as §4

Escherichia coli = assay: Agar plate disc-diffusion, inhibition zone; type: cell-based; settings: 37° C., 48 h
Protocol: as §4

Bacillus cereus = assay: Agar plate disc-diffusion, inhibition zone; type: cell-based; settings: 37° C., 48 h
Protocol: as §4

Aspergillus flavus = assay: Agar plate disc-diffusion, inhibition zone (antifungal); type: cell-based; settings: 72 h for fungi
Protocol: as §4

[3] = system: Chrysosporium keratinophilum; assay: as above; type: cell-based; settings: 72 h for fungi
Protocol: as §4

different microbes = assay: Antimicrobial screening by agar plate disc-diffusion, overall statement; type: cell-based; settings: against different microbes (bacteria and fungi of Tables 1 and 2)
Protocol: as §4

[4] = A = concentration of comp. = 10,000 μL
[5] = B = concentration of comp. = 30,000 μL
[6] = C = concentration of comp. = 50,000 μL
[7] = A = concentration of comp. = 10 mg/mL
[8] = A = concentration of comp. = 10,000 μg/mL

SMILES | inhibition zone (Pseudomonas aeruginosa; [4]) | inhibition zone (Pseudomonas aeruginosa; [5]) | inhibition zone (Pseudomonas aeruginosa; [6]) | inhibition zone (Staphylococcus aureus; [7]) | inhibition zone (Staphylococcus aureus; [5]) | inhibition zone (Staphylococcus aureus; [6]) | inhibition zone (Escherichia coli; [4]) | inhibition zone (Escherichia coli; [5]) | inhibition zone (Escherichia coli; [6]) | inhibition zone (Bacillus cereus; [8]) | inhibition zone (Bacillus cereus; [5]) | inhibition zone (Bacillus cereus; [6]) | inhibition zone (Aspergillus flavus; [4]) | inhibition zone (Aspergillus flavus; [5]) | inhibition zone (Aspergillus flavus; [6]) | inhibition zone [3, 4] | inhibition zone [3, 5] | inhibition zone [3, 6] | further results
Cc1ccc(C(C)C)c(OCc2nc(-c3ccc([N+](=O)[O-])cc3)no2)c1 [3-(4-nitrophenyl)-5-((2-isopropyl-5-methylphenoxy)methyl)-1,2,4-oxadiazole] |  |  |  |  |  |  |  |  |  |  |  |  |  |  |  |  |  |  | antiproliferative activity (in words) [1]: excellent antiproliferative activities; antiproliferative activity (in words) [2]: excellent antiproliferative activities
O=C(O)c1cn(C2CC2)c2cc(N3CCNCC3)c(F)cc2c1=O [Cip., ciprofloxacin, reference compound] | 29 mm | 30 mm | 53 mm | 43 mm | 44 mm | 53 mm | 30 mm | 39 mm | 60 mm | 29 mm | 30 mm | 42 mm | 29 mm | 30 mm | 42 mm | 29 mm | 30 mm | 53 mm | 
Cc1ccc(C(C)C)c(OCc2nc(-c3ccc([N+](=O)[O-])cc3)no2)c1 [Compound 3, 3-(4-nitrophenyl)-5-((2-isopropyl-5-methylphenoxy)methyl)-1,2,4-oxadiazole] | 26 mm | 27 mm | 43 mm | 18 mm | 23 mm | 35 mm | 27 mm | 36 mm | 50 mm | 22 mm | 25 mm | 38 mm | 20 mm | 23 mm | 36 mm | 28 mm | 30 mm | 49 mm | melting point: 172 to 173 °C; antimicrobial activity (in words) (different microbes): excellent antimicrobial activities
